Tests used:
[1] = test system: gonadotrope cell line LβT2 cells; assay: Time course of IRC response to GnRH in presence and absence of cyclohexamide (CHX); format: cell-based, mouse; details: 100 nM GnRH, protein synthesis inhibitor cyclohexamide
Protocol: The cells were treated with 100 nM GnRH in the presence and absence of the inhibitor of protein synthesis, cyclohexamide (CHX). […] No other proteins need to be synthesized to induce activation of this IRC. The use of a time course such as that illustrated allow selection of the optimum time point or time points after stimulation at which to assay the IRCs to provide the most complete map of the cell global signal transduction response.
The proper time point or time points after exposure can be determined experimentally in any system by performing a time course of the gene response. If a single time point after exposure is assayed, it is best to select a time at which most IRCs are continuing to show an increase in the level of expression. This is usually between 30 minutes and 1 hour.

[2] = test system: GnRHR-expressing LβT2 gonadotrope cell line; assay: SYBR green real-time PCR of transcripts regulated by GnRH in LβT2 cells; format: cell-based, mouse; details: 1 hour
Protocol: Cell Culture and Sample Preparation: LβT2 cells were obtained and maintained at 37° C. in 5% CO2 in humidified air in DMEM (Mediatech) containing 10% fetal bovine serum (Gemini). For experiments. 40-50×10^6 cells were seeded in 15 cm dishes. The medium was replaced 21 hours later with DMEM containing 25 mM HEPES (Mediatech) and glutamine. 18 hours later, the cells were treated with 100 nM GnRH or vehicle and were returned to the CO2 incubator for 1 hour. The incubation was stopped by aspirating the incubation medium and adding 10 ml of lysis buffer (4M guanidinium thiocyanate, 25 mM sodium citrate, pH 7.0, 0.5% N-lauroyl-sarcosine, and 0.1 M 2-mercaptoethanol). Total RNA was isolated according to the method of Chomczynski and Sacchi (1987) supra. Approximately 400 μg total RNA was obtained from each plate.
Real Time PCR. The protocol of Example 1 above, was used. Briefly, […] total RNA was converted into cDNA and […] (approximately 500 pg) was utilized for 40 cycle three-step PCR in an ABI Prism 7700 with 20 mM Tris pH 8.4, 50 mM KCL, 3 mM MgCl2, 200 μM dNTPs, 0.5×SYBR® green (Molecular Probes), […] primer and 0.5 U Platinum Taq (Life Technologies). Amplicon size and reaction specificity was confirmed by agarose gel electrophoresis. The number of target copies in each sample was interpolated from its detection threshold (CT) value using a plasmid or purified PCR product standard curve included on each plate. The sequence of the 60 primer sets utilized can be found in supplementary material. Each transcript in each sample was assayed 5 times and the median CT values were used for analysis.
Confirmation of Gene Regulation by Real-Time PCR. The measurement accuracy of the microarray and the biological variability of the transcriptional program identified was evaluated through a validation study comprising real time PCR assays of 60 transcripts, including 26 genes that met the threshold for regulation in the microarray assay. To generate accurate and precise reference measurements of these genes, 5 measurements were made of each gene in each RNA sample and the measurements were calibrated with a standard curve included on each PCR plate (FIG. 4). Nine experimental pairs of vehicle and GnRH-treated cultures were tested, including the microarray assayed samples. 100% (17 of 17) of the gene changes showing >1.6-fold change on the microarray and 66% (6 of 9) of gene changes showing between 1.3 and 1.6-fold changes were confirmed by PCR. […] Because the threshold was set at a 1.3-fold change, these genes are considered to be not confirmed (see discussion below).

[3] = 100 nM GnRH vs vehicle, LβT2 cells
[4] = gene did not meet the criteria on the microarray, 100 nM GnRH

gonadotropin releasing hormone [GnRH]
levels of gly96 in the presence of CHX [1]: increase | 1κB fold-change, SYBR PCR (n = 9) [2, 3]: 2.6 ± 0.2 fold | Egr1 fold-change, SYBR PCR (n = 9) [2, 3]: 390.6 ± 83.9 fold | Egr2 fold-change, SYBR PCR (n = 9) [2, 3]: 294.7 ± 35.6 fold | Gem fold-change, SYBR PCR (n = 9) [2, 3]: 4.3 ± 0.3 fold | HSP30 fold-change, SYBR PCR (n = 9) [2, 3]: 1.9 ± 0.2 fold | Klf4 fold-change, SYBR PCR (n = 9) [2, 3]: 2.9 ± 0.3 fold | Klf-like EST fold-change, SYBR PCR (n = 9) [2, 3]: 2.5 ± 0.2 fold | LRG21 fold-change, SYBR PCR (n = 9) [2, 3]: 96.8 ± 15.7 fold | MKP1/3CH134 fold-change, SYBR PCR (n = 9) [2, 3]: 3.4 ± 0.4 fold | NMDMC fold-change, SYBR PCR (n = 9) [2, 3]: 1.6 ± 0.3 fold | Nr4a1/nur77 fold-change, SYBR PCR (n = 9) [2, 3]: 49.4 ± 10.1 fold | Nrf2 fold-change, SYBR PCR (n = 9) [2, 3]: 1.5 ± 0.1 fold | PRL1 fold-change, SYBR PCR (n = 9) [2, 3]: 2.1 ± 0.1 fold | Period1 fold-change, SYBR PCR (n = 9) [2, 3]: 4.9 ± 1.1 fold | Rgs2 fold-change, SYBR PCR (n = 9) [2, 3]: 8.7 ± 0.4 fold | TSC22 fold-change, SYBR PCR (n = 9) [2, 3]: 3.3 ± 0.2 fold | c-fos fold-change, SYBR PCR (n = 9) [2, 3]: 52.0 ± 5.8 fold | c-jun fold-change, SYBR PCR (n = 9) [2, 3]: 6.6 ± 0.9 fold | gly96 fold-change, SYBR PCR (n = 9) [2, 3]: 3.8 ± 0.5 fold | ler2/Pip92 fold-change, SYBR PCR (n = 9) [2, 3]: 17.1 ± 2.4 fold | transgelin fold-change, SYBR PCR (n = 9) [2, 3]: 1.8 ± 0.2 fold | β-actin fold-change, SYBR PCR (n = 9) [2, 3]: 1.6 ± 0.1 fold | γ-actin fold-change, SYBR PCR (n = 9) [2, 3]: 3.9 ± 0.4 fold | SCL regulation by real-time PCR [2, 4]: 2.4 fold | STY kinase regulation by real-time PCR [2, 4]: 1.7 fold | glucose transport protein regulation by real-time PCR [2, 4]: 2.2 fold

From patent US7723023B2, “Use of intrinsic reporters of cell signaling for high content drug profiling and toxicity screening” (Mount Sinai School of Medicine, priority 2001, dated 2010)
